# According to patent publication US9480259B2, “Pyrazolopyrans having herbicidal and pharmaceutical properties” (BASF SE, priority 2012, dated 2016):
# Target: Arabidopsis thaliana SHMT
# Assay: SHMT activity assay (ED50 SHMT), coupled with N5,N10-CH2-THF dehydrogenase, NADH at 340 nm
# Type: biochemical
# In short: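 His-tagged SHMT purified on Ni-NTA. NADH formation followed at 340 nm for 30 min; ED50 from inhibition of initial velocity.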
# [1] = Table 2, values given as upper bounds
# [2] = inhibition of initial velocity of Arabidopsis thaliana SHMT
# [3] = Arabidopsis thaliana SHMT enzyme assay, values given as upper bounds
# [4] = Table 2, Arabidopsis thaliana SHMT enzyme assay, values given as upper bounds
Structure (SMILES),EC50 [1],other results
Cc1n[nH]c2c1C(c1cccc(-c3ccc(C(=O)O)cc3)c1)(C1CCC1)C(C#N)=C(N)O2 (stereo not shown) [Compound 2.495],< 10 nM,
Cc1n[nH]c2c1C(c1cc(Cl)cc(Cl)c1)(C1CCCC1)C(C#N)=C(N)O2 (stereo not shown) [Compound 2.199.],< 1000 nM,
Cc1n[nH]c2c1C(c1ccc(-c3ccccc3F)s1)(C1CCC1)C(C#N)=C(N)O2 (stereo not shown) [Compound 4.17],,EC50 [2]: < 10 nM
Cc1n[nH]c2c1C(c1ccc(CCc3nnn[nH]3)c(C#N)c1)(C(C)C)C(C#N)=C(N)O2 (stereo not shown) [Compound 2.734],,EC50 [3]: < 100 nM
CCCC1(c2cc(C#N)cc(C#N)c2)C(C#N)=C(N)Oc2[nH]nc(COC)c21 (stereo not shown) [Compound 2.593],< 10000 nM,
Cc1n[nH]c2c1C(c1ccc(Cc3nnn[nH]3)c(Cl)c1)(C1CCC1)C(C#N)=C(N)O2 (stereo not shown) [Compound 2.639],< 10 nM,
Cc1n[nH]c2c1C(c1cc3ccccc3s1)(C1CCC1)C(C#N)=C(N)O2 (stereo not shown) [Compound 4.28],,EC50 [2]: < 10 nM
Cc1n[nH]c2c1C(c1cc(Cl)cc(Cl)c1)(C1(F)CCC1)C(C#N)=C(N)O2 (stereo not shown) [Compound 2.180.],< 100 nM,
Cc1n[nH]c2c1C(c1cc(C#N)cc(OCC#N)c1)(C1CCC1)C(C#N)=C(N)O2 (stereo not shown) [Compound 2.471],< 10 nM,
CCC1(c2cc(Br)cc(C#N)c2)C(C#N)=C(N)Oc2[nH]nc(C(C)C)c21 (stereo not shown) [Compound 2.583],< 10 nM,
CCCC1(c2cc(Br)cc(C#N)c2)C(C#N)=C(N)Oc2[nH]nc(C)c21 (stereo not shown) [Compound 2.534],< 10 nM,
CCc1n[nH]c2c1C(CC)(c1ccc(Oc3ccccc3)cc1)C(C#N)=C(N)O2 (stereo not shown) [Compound 2.130.],< 1000 nM,
Cc1n[nH]c2c1C(c1ccc3c(c1)OC(F)(F)O3)(C1CCC1)C(C#N)=C(N)O2 (stereo not shown) [Compound 4.25],,EC50 [2]: < 10 nM
Cc1n[nH]c2c1C(c1ccc(-c3ccccc3C(F)(F)F)s1)(C1CCC1)C(C#N)=C(N)O2 (stereo not shown) [Compound 4.34],,EC50 [2]: < 10 nM
N#CC1=C(N)Oc2[nH]nc(C3CC3)c2C1(c1cccc(C(F)(F)F)c1)C1CCC1 (stereo not shown) [Compound 2.171.],< 100 nM,
Cc1n[nH]c2c1C(c1cc(Cl)cc(Cl)c1)(C(F)(F)F)C(C#N)=C(N)O2 (stereo not shown) [Compound 2.88.],< 1000 nM,
Cc1n[nH]c2c1C(c1cc(C#N)cc(C#N)c1)(C(C)F)C(C#N)=C(N)O2 (stereo not shown) [Compound 2.687],,EC50 [3]: < 100 nM
Cc1n[nH]c2c1C(c1cc(C#N)cc(N(C)CCCC(=O)O)c1)(C1CCC1)C(C#N)=C(N)O2 (stereo not shown) [Compound 2.695],,EC50 [3]: < 100 nM
COc1c(F)cc(-c2cc(C#N)cc(C3(C4CCC4)C(C#N)=C(N)Oc4[nH]nc(C)c43)c2)cc1F (stereo not shown) [Compound 2.463],< 10 nM,
Cc1n[nH]c2c1C(c1ccc(Cl)cc1)(C(F)(F)C(F)(F)F)C(C#N)=C(N)O2 (stereo not shown) [Compound 2.96.],< 1000 nM,
CCCC1(c2cc(C#N)cc(C(F)(F)F)c2)C(C#N)=C(N)Oc2[nH]nc(CC)c21 (stereo not shown) [Compound 2.575],< 10 nM,
Cc1n[nH]c2c1C(c1cc(CCCC#N)cc(-c3nnn[nH]3)c1)(C(C)C)C(C#N)=C(N)O2 (stereo not shown) [Compound 2.711],,EC50 [3]: < 100 nM
Cc1n[nH]c2c1C(c1cc(Cl)cc(-c3cccnc3)c1)(C1CCC1)C(C#N)=C(N)O2 (stereo not shown) [Compound 2.324],,EC50 [4]: < 10 nM

Structure (SMILES),EC50 [1],other results
Cc1n[nH]c2c1C(c1ccc3c(c1)nnn3C(C)C)(C1CCC1)C(C#N)=C(N)O2 (stereo not shown) [Compound 4.42],,EC50 [2]: < 10 nM
COC(=O)CCc1cccc(-c2cc(C#N)cc(C3(C4CCC4)C(C#N)=C(N)Oc4[nH]nc(C)c43)c2)c1 (stereo not shown) [Compound 2.525],< 10 nM,
Cc1n[nH]c2c1C(c1cc(Cl)cc(-c3ccoc3)c1)(C1CCC1)C(C#N)=C(N)O2 (stereo not shown) [Compound 2.220],,EC50 [4]: < 10 nM
CCC(=O)Nc1ccc(C2(CC)C(C#N)=C(N)Oc3[nH]nc(C)c32)cc1 (stereo not shown) [Compound 2.81.],< 1000 nM,
N#CC1=C(N)Oc2[nH]ncc2C1(c1ccc(Cl)c(OC(F)(F)F)c1)C1CCC1 (stereo not shown) [Compound 2.290],,EC50 [4]: < 100 nM
COc1ccc(C2(C3CCCC3)C(C#N)=C(N)Oc3[nH]nc(C)c32)cc1Cl (stereo not shown) [Compound 2.203.],< 1000 nM,
Cc1n[nH]c2c1C(c1ccc(N3CCCC3)c(Cl)c1)(C1CCC1)C(C#N)=C(N)O2 (stereo not shown) [Compound 2.268],,EC50 [4]: < 10 nM
Cc1n[nH]c2c1C(c1cc(C#N)cc(-c3ccsc3Cl)c1)(C1CCC1)C(C#N)=C(N)O2 (stereo not shown) [Compound 2.363],,EC50 [4]: < 10 nM
COc1ccc(C2(C3CCC3)C(C#N)=C(N)Oc3[nH]nc(C)c32)cc1Br (stereo not shown) [Compound 2.208.],< 10 nM,
Cc1n[nH]c2c1C(c1cc(C#N)cc(N(C)S(=O)(=O)CC(=O)O)c1)(C1CCC1)C(C#N)=C(N)O2 (stereo not shown) [Compound 2.731],,EC50 [3]: < 100 nM
Cc1n[nH]c2c1C(c1cc(C#N)cc(N(C)C(=O)CCCC(=O)O)c1)(C1CCC1)C(C#N)=C(N)O2 (stereo not shown) [Compound 2.636],< 10 nM,
N#CC1=C(N)Oc2[nH]ncc2C1(c1ccc(C(F)(F)F)c(C(F)(F)F)c1)C1CCC1 (stereo not shown) [Compound 2.302],,EC50 [4]: < 10 nM
CCC1(c2cc(F)cc(F)c2)C(C#N)=C(N)Oc2[nH]nc(C)c21 (stereo not shown) [Compound 2.17.],< 1000 nM,
N#CC1=C(N)Oc2[nH]ncc2C1(c1cc(Cl)cc(-c2cscn2)c1)C1CCC1 (stereo not shown) [Compound 2.339],,EC50 [4]: < 100 nM
CCC1(c2cc(Br)cc(C#N)c2)C(C#N)=C(N)Oc2[nH]nc(OC)c21 (stereo not shown) [Compound 2.601],< 1000 nM,
COC(=O)c1cc(C(=O)O)cc(-c2cc(C#N)cc(C3(C4CCC4)C(C#N)=C(N)Oc4[nH]nc(C)c43)c2)c1 (stereo not shown) [Compound 2.571],< 100 nM,
Cc1n[nH]c2c1C(c1nc3ccc(Cl)cc3o1)(C1CCC1)C(C#N)=C(N)O2 (stereo not shown) [Compound 4.37],,EC50 [2]: < 10 nM
Cc1n[nH]c2c1C(c1cc(C#N)cc(C#N)c1)(C1CC(F)(F)C1)C(C#N)=C(N)O2 (stereo not shown) [Compound 2.707],,EC50 [3]: < 1000 nM
Cc1n[nH]c2c1C(c1cc(Cl)cc(Oc3ccc(Cl)cc3)c1)(C1CC1)C(C#N)=C(N)O2 (racemic) [Compound 2.342],,EC50 [4]: < 10 nM
Cc1n[nH]c2c1C(c1cccc(Cl)c1)(C(C)C)C(C#N)=C(N)O2 (stereo not shown) [Compound 2.122.],< 100 nM,
Cc1n[nH]c2c1C(c1ccc(CCC#N)c(-c3nnn[nH]3)c1)(C(C)C)C(C#N)=C(N)O2 (stereo not shown) [Compound 2.736],,EC50 [3]: < 1000 nM
Cc1n[nH]c2c1C(c1ccc(-c3ccc(F)cc3)s1)(C1CCC1)C(C#N)=C(N)O2 (stereo not shown) [Compound 4.8],,EC50 [2]: < 10 nM
Cc1n[nH]c2c1C(c1cc(Br)cc(C#N)c1)(C1CC1)C(C#N)=C(N)O2 (stereo not shown) [Compound 2.365],,EC50 [4]: < 10 nM

Structure (SMILES),EC50 [1],other results
CCCCC1(c2cc(Cl)cc(Cl)c2)C(C#N)=C(N)Oc2[nH]nc(C)c21 (racemic) [Compound 2.92.],< 10000 nM,
CCC1(c2ccc(OC(F)F)cc2)C(C#N)=C(N)Oc2[nH]nc(C)c21 (stereo not shown) [Compound 2.32.],< 10000 nM,
Cc1n[nH]c2c1C(c1cc(Cl)cc(-c3cccc(C(=O)O)c3)c1)(C1CCC1)C(C#N)=C(N)O2 (stereo not shown) [Compound 2.482],< 10 nM,
Cc1n[nH]c2c1C(c1ccc(C(=O)O)c(Cl)c1)(C1CCC1)C(C#N)=C(N)O2 (stereo not shown) [Compound 2.594],< 1000 nM,
COc1ccc(C2(C3CCC3)C(C#N)=C(N)Oc3[nH]ncc32)cc1Br (stereo not shown) [Compound 2.255],,EC50 [4]: < 10 nM
Cc1n[nH]c2c1C(c1cc(C(F)(F)F)cc(C(F)(F)F)c1)(C1(F)COC1)C(C#N)=C(N)O2 (racemic) [Compound 2.501],< 10 nM,
Cc1n[nH]c2c1C(c1cc(C#N)cc(N(C)C(=O)C(C)C)c1)(C1CCC1)C(C#N)=C(N)O2 (stereo not shown) [Compound 2.613],< 10 nM,
Cc1n[nH]c2c1C(c1cc(C#N)cc(-c3cc(Cl)sc3Cl)c1)(C1CCC1)C(C#N)=C(N)O2 (stereo not shown) [Compound 2.364],,EC50 [4]: < 10 nM
CCC1(c2ccc([N+](=O)[O-])cc2)C(C#N)=C(N)Oc2[nH]nc(C)c21 (stereo not shown) [Compound 2.40.],< 1000 nM,
Cc1n[nH]c2c1C(c1cc(C#N)cc(N(C)Cc3ccccc3)c1)(C1CCC1)C(C#N)=C(N)O2 (stereo not shown) [Compound 2.660],,EC50 [3]: < 10 nM
Cc1n[nH]c2c1C(c1cc(Cl)cc(-c3ccco3)c1)(C1CCC1)C(C#N)=C(N)O2 (stereo not shown) [Compound 2.262],,EC50 [4]: < 10 nM
Cc1n[nH]c2c1C(c1cc(Cl)cc(NS(=O)(=O)c3ccccc3)c1)(C1CCC1)C(C#N)=C(N)O2 (stereo not shown) [Compound 2.490],< 10 nM,
N#CC1=C(N)Oc2[nH]ncc2C1(c1cc(Br)cc(Br)c1)C1CC=CC1 (stereo not shown) [Compound 2.301],,EC50 [4]: < 100 nM
Cc1n[nH]c2c1C(c1cc(Cl)cc(Cl)c1)(C1CC1(F)F)C(C#N)=C(N)O2 (stereo not shown) [Compound 2.270],,EC50 [4]: < 10 nM
Cc1n[nH]c2c1C(c1cc(Cl)cc(Oc3ccc(F)cc3)c1)(C1CCC1)C(C#N)=C(N)O2 (stereo not shown) [Compound 2.201.],< 100 nM,
Cc1n[nH]c2c1C(c1cc(Cl)cc(Br)c1)(C1CC1)C(C#N)=C(N)O2 (stereo not shown) [Compound 2.146.],< 100 nM,
Cc1n[nH]c2c1C(c1cc(C#N)cc(NS(C)(=O)=O)c1)(C1CCC1)C(C#N)=C(N)O2 (stereo not shown) [Compound 2.704],,EC50 [3]: < 100 nM
Cc1n[nH]c2c1C(c1ccc(F)c(Cl)c1)(C(C)C)C(C#N)=C(N)O2 (stereo not shown) [Compound 2.134.],< 100 nM,
CCC1(c2cc(F)c(OC)c(F)c2)C(C#N)=C(N)Oc2[nH]nc(C)c21 (stereo not shown) [Compound 2.45.],< 1000 nM,
COC(=O)CCS(=O)(=O)N(C)c1cc(C#N)cc(C2(C(C)C)C(C#N)=C(N)Oc3[nH]nc(C)c32)c1 (stereo not shown) [Compound 2.726],,EC50 [3]: < 100 nM
CCC1(c2ccc(OC(=O)c3ccccc3)c(C)c2)C(C#N)=C(N)Oc2[nH]nc(C)c21 (stereo not shown) [Compound 2.49.],< 1000 nM,
